PubChem BioAssay (NCI)
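Protocol summary: plate cells (96-well), add compound at 5 concentrations, incubate 48 h, interpolate endpoints linearly. The concentration for full growth arrest is given as TGI.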

Columns and labels:
Test in all cases: NCI tumour cell line growth inhibition, 48 h
HOP-18 NSCLC = test system: HOP-18 NSCLC
P388/ADR leukemia = test system: P388/ADR leukemia
SN12K1 renal = test system: SN12K1 renal

## C=CC1(C)CC(=O)C2(O)C(C)(O1)C(OC(C)=O)C(O)C1C(C)(C)CCC(O)C12C (stereo not drawn)
HOP-18 NSCLC
  TGI: > 138 µM
P388/ADR leukemia
  TGI: > 84.4 µM
SN12K1 renal
  TGI: > 150 µM
